According to patent US20260242398A1, “BENZOPYRIMIDIN-4(3H)-ONES AS PI3K INHIBITORS” (OnKure, Inc., priority 2022, published 2026):
Read-outs that look alike come from different tables or passages of the source.

Assays:
Assay type in all cases: cell-based
[1] = tested on: phosphorylation of AKT (pAKT) in T47D cells expressing mutant PI3Ka (H1047R); assay: In vitro cell pAKT (Ser473) HTRF, T47D cells
Method: (§1) In Vitro Cell pAKT: Determination of IC50 Values for Inhibition of Phosphorylation of AKT (pAKT) in T47D Cells Expressing Mutant PI3Ka (H1047R) Mutation and SKBR3 Cells Express WT PI3Ka.
(§2) T47D or SKBR3 cells were trypsinized, resuspended in culture media and seeded onto assay ready plates. T47D culture media consisted of RPMI, 10% FBS and Insulin (0.2 units/mL). SKBR3 culture media consisted of McCoy's 5a and 10% FBS. Cells were seeded at a density of 5000 cells/well and dispensed in 12.5 uL onto 384 well assay ready plates (Perkin Elmer, 6008238)). Assay ready plates had previously been stamped with 10-point dilutions of compounds of interest, as well as controls. The Echo655 is used to stamp plates at 12.5 nL of compound or DMSO. Cells were grown for 6 hour at 37° Celsius and 5% CO2. After 6 hour, 4 uL of Lysis buffer reagent was added to the plate, which was then centrifuged for 1 minute at 1000 rpm. Then the plate was incubated at room temperature for 30 minutes. After 30 minutes, 4 uL of antibody mix containing Eu Cryptate, d2 Cryptate, and detection buffer, was added to the plate. The plate was centrifuged for 1 minute at 1000 rpm and then incubated overnight at room temperature. The plate was read on an Envision plate reader using the HTRF protocol. The percentage of inhibition of AKT phosphorylation was calculated using the following formula: % Inhibition=100×(pAKTHC−pAKTSample)/(pAKTHC−pAKTLC)), where pAKTHC is obtained from cells treated with 0.1% DMSO only; pAKTLC is obtained from cells treated with 10 uM Alpelisib. The IC50 (concentration achieving 50% inhibition of pAKT) is calculated by fitting the Curve using XWfit (v5.3.1.3), equation 201: Y=Bottom+(Top−Bottom)/(1+10^((Log IC50−X)*HillSlope)).

[2] = tested on: T47D cells expressing mutant PI3Ka (H1047R); assay: In vitro cell proliferation (CellTiter-Glo, 72 hours), T47D cells; details: inhibition of proliferation, read-out: Avg T-47D EC50
Method: (§3) In Vitro Cell Proliferation: Determination of EC50 Values for Inhibition of Proliferation in T47D Cells Expressing Mutant PI3Ka (H1047R) Mutation and SKBR3 Cells Express WT PI3Ka.
(§4) T47D or SKBR3 cells were trypsinized, resuspended in culture media and seeded onto assay ready plates. T47D culture media consisted of RPMI, 10% FBS and Insulin (0.2 units/mL). SKBR3 culture media consisted of McCoys 5a and 10% FBS. Cells were seeded at a density of 1,500 cells/well and dispensed in 50 uL onto 384 well assay ready plates (Corning, 89089-790). Assay ready plates had previously been stamped with 10-point dilutions of compounds of interest, as well as controls. The Echo655 is used to stamp plates at 40 nL of compound or DMSO. Cells were grown for 72 hours at 37° Celsius and 5% CO2. After 72 hours, cells were equilibrated at room temperature for 15 minutes. 30 uL of CellTiter-Glo reagent is added to the plate, which is then shaken for 30 minutes at temperature at 300-500 rpm. Cells are then read on an Envision plate reader. The percentage of inhibition of proliferation was calculated using the following formula: % Inhibition=100×(LumD−LumSample)/(LumD−LumInh), where D is obtained from cells treated with 0.1% DMSO only; Inh is obtained from cells treated with 10 uM Alpelisib. The effective concentration achieving 50% inhibition of proliferation (EC50) is calculated by fitting the Curve using XWfit (v5.3.1.3), equation 201: Y=Bottom+(Top−Bottom)/(1+10^((Log EC50−X)*HillSlope)).

[3] = tested on: phosphorylation of AKT (pAKT) in SKBR3 cells express WT PI3Ka; assay: In vitro cell pAKT (Ser473) HTRF, SKBR3 cells
Method: as §1, §2

[4] = tested on: SKBR3 cells express WT PI3Ka; assay: In vitro cell proliferation (CellTiter-Glo, 72 hours), SKBR3 cells
Method: as §3, §4

[5] = inhibition of pAKT, 6 hour, read-out: Avg T-47D IC50
[6] = Homo sapiens, SK-BR-3, 6 h, inhibition of pAKT
[7] = Homo sapiens, SK-BR-3, 72 h, inhibition of proliferation
[8] = Homo sapiens, T47D, 6 h, inhibition of pAKT, read-out: Avg T-47D IC50

Structure (SMILES)	IC50 [1, 5] [µM]	EC50 ([2]; Homo sapiens, T47D, 72 h) [µM]	IC50 [3, 6] [µM]	EC50 ([4]; inhibition of proliferation) [µM]	EC50 [2] [µM]	IC50 ([3]; inhibition of pAKT, 6 hour) [µM]	EC50 [4, 7] [µM]	IC50 ([1]; read-out: Avg T-47D IC50, inhibition of pAKT, 6 hour) [µM]	IC50 ([3]; Homo sapiens, SK-BR-3, inhibition of pAKT, 6 hour) [µM]	EC50 ([4]; Homo sapiens, SK-BR-3, inhibition of proliferation) [µM]	IC50 [1, 8] [µM]
Cc1cc(C(C)Nc2ccccc2C(=O)O)c2nc(N3CCC(C)(C)CC3)n(CF)c(=O)c2c1 (single isomer, unassigned) [Example 51, 2-((1-(2-(4,4-dimethylpiperidin-1-yl)-3-(fluoromethyl)-6-methyl-4-oxo-3,4-dihydroquinazolin-8-yl)ethyl)amino)benzoic acid]	5 to 15	2 to 15	> 15	2 to 15							
Cc1cc(C(C)Nc2ccccc2C(=O)O)c2nc(NCc3ccc(Cl)cc3)n(C)c(=O)c2c1 (single isomer, unassigned) [Example 44, 2-((1-(2-((4-chlorobenzyl)amino)-3,6-dimethyl-4-oxo-3,4-dihydroquinazolin-8-yl)ethyl)amino)benzoic acid]	> 15			> 15	2 to 15	> 15					
Cc1cc(C(C)Nc2ccccc2C(=O)O)c2nc(OCC(C)C)n(C)c(=O)c2c1 (single isomer, unassigned) [Example 12, 2-((1-(2-isobutoxy-3,6-dimethyl-4-oxo-3,4-dihydroquinazolin-8-yl)ethyl)amino)benzoic acid]	> 15			> 15	2 to 15	> 15					
Cc1cc(C(C)Nc2ccccc2C(=O)O)c2nc(N3CCCC(C)(C)C3)n(C)c(=O)c2c1 (single isomer, unassigned) [Example 3, 2-((1-(2-(3,3-dimethylpiperidin-1-yl)-3,6-dimethyl-4-oxo-3,4-dihydroquinazolin-8-yl)ethyl)amino)benzoic acid]	1 to 5		> 15		0.5 to 2		> 15				
Cc1cc(C(C)Nc2ccccc2C(=O)O)c2nc(NC[C@@H](C)c3ccccc3)n(C)c(=O)c2c1 (single isomer, unassigned) [Example 47]	5 to 15		> 15	> 15	0.5 to 2						
CC(Nc1ccccc1C(=O)O)c1cc(C(F)(F)F)cc2c(=O)n(C)c(N3CCN(CC(F)(F)F)CC3)nc12 (single isomer, unassigned) [Example 38, 2-((1-(3-methyl-4-oxo-2-(4-(2,2,2-trifluoroethyl)piperazin-1-yl)-6-(trifluoromethyl)-3,4-dihydroquinazolin-8-yl)ethyl)amino)benzoic acid]	> 15			2 to 15	> 15	> 15					
CC(Nc1ccccc1C(=O)O)c1cc(F)cc2c(=O)n(C)c(N3CCN(CC(F)(F)F)CC3)nc12 (single isomer, unassigned) [Example 36, 2-((1-(6-fluoro-3-methyl-4-oxo-2-(4-(2,2,2-trifluoroethyl)piperazin-1-yl)-3,4-dihydroquinazolin-8-yl)ethyl)amino)benzoic acid]	> 15			> 15	> 15	> 15					
Cc1cc(C(C)Nc2ccccc2C(=O)O)c2nc(NC[C@@H](C)c3ccccc3)n(C)c(=O)c2c1 (single isomer, unassigned) [Example 48]	> 15			2 to 15	2 to 15	> 15					
Cc1cc(C(C)Nc2ccccc2C(=O)O)c2nc(N3CCC(C)(C)CC3)n(CF)c(=O)c2c1 (single isomer, unassigned) [Example 52, 2-((1-(2-(4,4-dimethylpiperidin-1-yl)-3-(fluoromethyl)-6-methyl-4-oxo-3,4-dihydroquinazolin-8-yl)ethyl)amino)benzoic acid]	> 15			> 15	2 to 15	> 15					
Cc1cc(C(C)Nc2ccccc2C(=O)O)c2nc(N3CC[Si](C)(C)CC3)n(C)c(=O)c2c1 (single isomer, unassigned) [Example 1, 2-((1-(2-(4,4-dimethyl-1,4-azasilinan-1-yl)-3,6-dimethyl-4-oxo-3,4-dihydroquinazolin-8-yl)ethyl)amino)benzoic acid]					0.5 to 2			0.001 to 1	> 15	2 to 15	
CC(Nc1ccc(F)cc1C(=O)O)c1cc(Cl)cc2c(=O)n(C)c(N3CCN(CC(F)(F)F)CC3)nc12 (single isomer, unassigned) [Example 24, 2-((1-(6-chloro-3-methyl-4-oxo-2-(4-(2,2,2-trifluoroethyl)piperazin-1-yl)-3,4-dihydroquinazolin-8-yl)ethyl)amino)-5-fluorobenzoic acid]	0.001 to 1		> 15		0.001 to 0.5		2 to 15				
Cc1cc(C(C)Nc2ccccc2C(=O)O)c2nc(N3CCC(C)(C)CC3)n(C3CC3)c(=O)c2c1 (single isomer, unassigned) [Example 50, 2-((1-(3-cyclopropyl-2-(4,4-dimethylpiperidin-1-yl)-6-methyl-4-oxo-3,4-dihydroquinazolin-8-yl)ethyl)amino)benzoic acid]	> 15			> 15	2 to 15	> 15					
Cc1cc(C(C)Nc2ccccc2C(=O)O)c2nc(NC[C@H](C)c3ccccc3)n(C)c(=O)c2c1 (single isomer, unassigned) [Example 46]	0.001 to 1			2 to 15	0.5 to 2	> 15					
Cc1cc(C(C)Nc2ccccc2C(=O)O)c2nc(NC[C@H](C)c3ccccc3)n(C)c(=O)c2c1 (single isomer, unassigned) [Example 45]	> 15		> 15	> 15	2 to 15						
Cc1cc(C(C)Nc2ccccc2C(=O)O)c2nc(Nc3ccc(Cl)cc3)n(C)c(=O)c2c1 (single isomer, unassigned) [Example 41, 2-((1-(2-((4-chlorophenyl)amino)-3,6-dimethyl-4-oxo-3,4-dihydroquinazolin-8-yl)ethyl)amino)benzoic acid]		2 to 15	> 15	2 to 15							> 15
Cc1cc(C(C)Nc2ccccc2C(=O)O)c2nc(SCc3ccc(Cl)c(OC(F)(F)F)c3)n(C)c(=O)c2c1 (single isomer, unassigned) [Example 31, 2-((1-(2-((4-chloro-3-(trifluoromethoxy)benzyl)thio)-3,6-dimethyl-4-oxo-3,4-dihydroquinazolin-8-yl)ethyl)amino)benzoic acid]		2 to 15	> 15				2 to 15				> 15
Cc1cc(C(C)Nc2ccccc2C(=O)O)c2nc(N3CC4(CCCCC4)C3)n(C)c(=O)c2c1 (single isomer, unassigned) [Example 6, 2-((1-(3,6-dimethyl-4-oxo-2-(2-azaspiro[3.5]nonan-2-yl)-3,4-dihydroquinazolin-8-yl)ethyl)amino)benzoic acid]	> 15		> 15		> 15		> 15				
